Here are results for 4 compounds from US12122761B2, “2-azaspiro[3.4]octane derivatives as M4 agonists” (NOVARTIS AG, priority 2019, dated 2024).

Experiment [1] deals with T1, human cloned CHRM3 receptor (M3_CHO cells) (Homo sapiens, UniProt P20309).
T1 construct: expressed in transfected cells; host or cells: CHO-K1
Description: CHRM3 Ca++ Flux Assay (agonist mode, FDSS 7000EX). The format is cell-based. The note with it: for EC50: agonist mode, geometric mean if tested more than once, read-out: M3 FDSS EC50. The procedure: (§1) The above examples were characterized by measuring the intracellular mobilization of Ca++ ions caused by signaling events mediated by the receptor. The Intra-cellular Calcium flux levels were captured by the highly sensitive Ca++ indicator, Calcium Assay Kit (BD Biosciences, Catalog Number 640178). The fluorescent activity from all receptors were monitored by the fluorescent imager, FDSS 7000EX (Hamamatsu) over a span of 3 minutes.
(§2) CHO-K1 cells stably expressing the human cloned CHRM3 receptor (M3_CHO cells) were grown and maintained in a monolayer culture with F12/HAM (Life Technologies) supplemented with 10% Fetal Bovine Serum, 1× Pen-Strep, and 0.4 mg/mL Geneticin in a humidified atmosphere (5% CO2) at 37° C. The cultures were grown to 80-9 0% confluency in T150 flasks (Corning) and washed with 1×DPBS and lifted with 0.05% Trypsin (Life Technologies). The cells were then spun (1K rpm, 3 minutes) and frozen using Recovery Cell Culture Freezing Media (Gibco Technologies). Cells were stored in liquid nitrogen and thawed a day before the assay. A similar procedure was used for cells stably expressing the human cloned CHRM5 receptor (M5_CHO).
(§3) Prior to the day of the assay, stable M3_CHO or M5_CHO cells were thawed and plated on Greiner 384 well black TC treated plates at 12K cells/well in F12/DMEM supplemented with 10% FBS (Hyclone) and kept overnight in a humidified atmosphere (5% CO2) at 37° C. The next day, cells were loaded with Ca^++ dye (BD Biosciences) using Loading Buffer (HBSS +Ca/+Mg, 20 mM HEPES, 2.5 mM Probenecid) and placed back in cell incubator for a minimum of 1 hour. After incubation, the dye was replaced with Assay Buffer (HBSS −Ca/−Mg, 20 mM HEPES, 2.5 mM Probenecid) and kept at room temperature in the dark before running on cell imager. The FDSS 7000EX (Hamamatsu) was used to acquire Ca^++ traces from cells treated with 11 point dose response of compounds in triplicate in order to generate dose response curves in agonist mode. All compounds were serially diluted in DMSO then prepared in Assay Buffer for Ca^++ flux studies. The dose response curves were generated from the average of triplicate wells obtained from each data point and used a non-linear regression of four parameter dose response algorithm. The Percent Activity (PA) was measured to EC100 of Carbachol.

The target in experiment [2] is T2, human cloned CHRM5 receptor (M5_CHO) (Homo sapiens, UniProt P08912).
T2 construct: expressed in transfected cells; host or cells: CHO (M5_CHO)
T2 sequence (P08912 1-532): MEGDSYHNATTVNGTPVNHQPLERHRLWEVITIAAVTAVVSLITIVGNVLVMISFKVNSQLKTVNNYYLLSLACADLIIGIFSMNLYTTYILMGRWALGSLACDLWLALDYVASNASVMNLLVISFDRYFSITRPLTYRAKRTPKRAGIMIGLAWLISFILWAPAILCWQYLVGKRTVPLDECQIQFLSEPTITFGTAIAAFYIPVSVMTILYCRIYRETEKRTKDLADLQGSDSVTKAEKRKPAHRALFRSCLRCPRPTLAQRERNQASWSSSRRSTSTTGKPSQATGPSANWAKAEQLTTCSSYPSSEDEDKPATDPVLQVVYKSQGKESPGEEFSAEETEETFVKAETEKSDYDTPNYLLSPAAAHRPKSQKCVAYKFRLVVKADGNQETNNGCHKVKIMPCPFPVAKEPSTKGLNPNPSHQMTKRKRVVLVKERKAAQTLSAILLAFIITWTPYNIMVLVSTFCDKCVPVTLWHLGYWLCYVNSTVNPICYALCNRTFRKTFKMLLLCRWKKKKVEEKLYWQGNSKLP
Description: CHRM5 Ca++ Flux Assay (agonist mode, FDSS 7000EX). The format is cell-based. The conditions noted are these: Percent Activity measured to EC100 of Carbachol; read-out: M5 FDSS PA. The method, then: as §1, §2, §3

The subject of experiment [3] is hyperactivity in mice induced by the stimulant d-amphetamine. The note with it: general statement on clinically efficacious muscarinic antipsychotics; xanomeline used as positive control (1.0 mg/kg, SC); cited from earlier work.
The mark [4] stands for this setting: Percent Activity measured to EC100 of Carbachol.

T1 sequence (P20309 whole entry): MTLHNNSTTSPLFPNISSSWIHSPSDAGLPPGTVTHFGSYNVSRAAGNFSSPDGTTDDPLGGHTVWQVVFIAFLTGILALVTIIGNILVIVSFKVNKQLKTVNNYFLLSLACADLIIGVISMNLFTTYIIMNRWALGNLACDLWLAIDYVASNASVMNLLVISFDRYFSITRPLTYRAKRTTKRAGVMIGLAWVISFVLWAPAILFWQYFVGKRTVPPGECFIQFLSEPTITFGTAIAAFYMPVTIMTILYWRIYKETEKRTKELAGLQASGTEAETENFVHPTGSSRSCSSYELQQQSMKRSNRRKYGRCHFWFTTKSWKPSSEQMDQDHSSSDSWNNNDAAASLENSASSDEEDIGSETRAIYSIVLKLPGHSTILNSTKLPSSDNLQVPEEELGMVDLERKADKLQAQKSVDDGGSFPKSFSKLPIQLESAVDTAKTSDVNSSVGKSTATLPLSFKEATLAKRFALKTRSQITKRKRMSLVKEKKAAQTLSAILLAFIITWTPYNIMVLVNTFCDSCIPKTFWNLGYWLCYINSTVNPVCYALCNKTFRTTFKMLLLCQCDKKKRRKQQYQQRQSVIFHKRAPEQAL

A word on the EC50: it is the midpoint of the concentration-response curve. As to `COc1ccccc1C1CCN([C@H]2CCC3(C2)CN(C(=O)C2COC2)C3)CC1` (single isomer, unassigned) [Example 8C, (S)-(6-(4-(2-methoxyphenyl)piperidin-1-yl)-2-azaspiro[3.4]octan-2-yl)(oxetan-3-yl)methanone or (R)-(6-(4-(2-methoxyphenyl)piperidin-1-yl)-2-azaspiro[3.4]octan-2-yl)(oxetan-3-yl)methanone], the “M3 FDSS PA” value in experiment [1] (setting [4]) is recorded as 0%. In addition, in experiment [1], the EC50 is over 25 µM.
For `COc1ccccc1C1CCN([C@H]2CCC3(C2)CN(C(=O)C2COC2)C3)CC1` (single isomer, unassigned) [Example 8D, (S)-(6-(4-(2-methoxyphenyl)piperidin-1-yl)-2-azaspiro[3.4]octan-2-yl)(oxetan-3-yl)methanone or (R)-(6-(4-(2-methoxyphenyl)piperidin-1-yl)-2-azaspiro[3.4]octan-2-yl)(oxetan-3-yl)methanone] the same measures were 0% and over 25 µM.
Turning to `COc1cc(F)ccc1C1CCN([C@@H]2CCC3(C2)CN(C(=O)C2COC2)C3)CC1` [Example 6C, (R)-(6-(4-(4-fluoro-2-methoxyphenyl)piperidin-1-yl)-2-azaspiro[3.4]octan-2-yl)(oxetan-3-yl)methanone], the Emax in experiment [1] (Percent Activity measured to EC100 of Carbachol, read-out: M3 FDSS PA) was 0%; in experiment [2], 0%.
For the compound `CCCCCCOc1nsnc1C1=CCCN(C)C1` [xanomeline], the “activity in the amphetamine induced hyperlocomotion assay” value in experiment [3] is “active”.
